Test results taken from patent US5043332A, “Novel 11β-substituted -19-nor-steriods” (priority 1981, dated 1991).

Legend:
thymus = assay: Thymolytic activity in the granuloma test; format: in vivo, Wistar rats; conditions: subcutaneous dose of 50 mg/kg
Description: The anti-inflammatory activity of the compound of Example 4 was determined by the classical granuloma test by a modification of the Meier et al test [Experientia, Vol. 6 (1950), p. 469] in which normal female Wistar rats weighing 100 to 110 g received an implantation of 2 pellets of cotton weighing 10 mg each under the thorax skin. The subcutaneous treatment which began immediately after the implantation for 2 days was 2 injections per day. 16 hours after the last injection, the animals were killed and the pellets together with the granuloma tissue formed were weighed in the fresh state and after 16 hours at 60° C. The weight of the granuloma was obtained by subtracting the initial weight of the cotton. The thymus was also removed and weighed to determine the thymolytic activity of the test product.

uterine endometrium [1] = assay: Progestomimetic activity, oral, change in uterine endometrium (McPhail); format: in vivo, immature female rabbits
Description: IV. Progestomimetic and Anti-progestomimetic Activity
a) Groups of immature female rabbits weighing about 1 kg had administered to them subcutaneously from day 1 to day 5, 5 μg of estradiol. The product tested was afterward administered orally from day 8 to day 11 in a volume of 0.5 cm^3 of water containing 0.5% of carboxymethyl cellulose and 0.2% of Tween. On day 12, the rabbits were sacrificed, their uteruses were retained and fixed in Bouin's solution and histologically studied.
The changes in the uterine endometrium were noted according to the method of McPhail.

uterine endometrium [2] = assay: Progestomimetic activity, intrauterine, change in uterine endometrium (McPhail); format: in vivo, immature female rabbits; conditions: method of McPhail
Description: (§1) Groups of three immature female rabbits weighing about 1 kg were topically treated on the dorsal skin with 25 μg of estradiol in 10 μl of ethanol on day 1. On day 4 the product to be tested dissolved in 0.1 ml, of sesame oil containing 5% benzyl alcohol was introduced into a part of the uterus isolated between two ligatures. On the sixth day the animals were sacrificed, their uteruses retained and fixed in Bouin's solution for histological examination. Changes in the uterine endometrium were noted after the method of McPhail.

uterine endometrium [3] = assay: Anti-progestomimetic activity versus progesterone, intrauterine, change in uterine endometrium (McPhail); format: in vivo, immature female rabbits
Description: as §1

## CC#C[C@]1(O)CC[C@H]2[C@@H]3CCC4=CC(=O)CCC4=C3[C@@H](c3ccc(N(C)C)cc3)C[C@@]21C [Example 19, 11β-[4-(N,N-dimethylamino)-phenyl]-17α-(prop-1-ynyl)-Δ^4,9-estradiene-17β-ol-3-one]
thymus
  thymolytic activity: did not show any glucocorticoidal anti-inflammatory activity or thymolytic activity
Uterine endometrium [1]; 0.3 mg/kg by mouth
  CHANGE IN THE ENDOMETRIUM: 0 McPHAIL UNTS
Uterine endometrium [1]; 1.0 mg/kg by mouth
  CHANGE IN THE ENDOMETRIUM: 0 McPHAIL UNTS
Uterine endometrium [1]; 3.0 mg/kg by mouth
  CHANGE IN THE ENDOMETRIUM: 0 McPHAIL UNTS
Uterine endometrium [1]; 10.0 mg/kg by mouth
  CHANGE IN THE ENDOMETRIUM: 0 McPHAIL UNTS
Uterine endometrium [1]; 50 mg/kg by mouth
  CHANGE IN THE ENDOMETRIUM: 0 McPHAIL UNTS
Uterine endometrium [2]; 30 μg/rabbit
  CHANGE IN THE ENDOMETRIUM: 0
Uterine endometrium [2]; 500 μg/rabbit
  CHANGE IN THE ENDOMETRIUM: 0
Uterine endometrium [3]; progesterone 10 μg + 1 μg/rabbit
  CHANGE IN THE ENDOMETRIUM: 1.6
Uterine endometrium [3]; progesterone 10 μg + 3 μg/rabbit
  CHANGE IN THE ENDOMETRIUM: 1.3
Uterine endometrium [3]; progesterone 10 μg + 10 μg/rabbit
  CHANGE IN THE ENDOMETRIUM: 1.0
Uterine endometrium [3]; progesterone 10 μg + 30 μg/rabbit
  CHANGE IN THE ENDOMETRIUM: 0.6
Uterine endometrium [3]; progesterone 10 μg + 90 μg/rabbit
  CHANGE IN THE ENDOMETRIUM: 0.6
